Measurements as given in patent US10626144B2, “Peptide derivatives and uses thereof” (Nosopharm, priority 2014, dated 2020).
Read-outs that look alike come from different tables or passages of the source. Numbered stars: 1 amine (or outer) side, 2 acyl side, 3 side chain; on linkers, the order of the positions; unused ones are H or OH. Square brackets hold non-standard residues; d marks the D form. Peptide text beside a SMILES is read from it. * marks the point of attachment. X3 = NC[C@H](OC(=O)C(F)(F)F)[C@H](N[*:1])C(=O)[*:2]; Phe(4-tBu) = CC(C)(C)c1ccc(C[C@H](N)C(=O)O)cc1; Dab(3S-OH) = NC[C@H](O)[C@H](N)C(=O)O; His(π-Me) = Cn1cncc1C[C@H](N)C(=O)O; 2Pal = N[C@@H](Cc1ccccn1)C(=O)O; ΔZArg = N=C(N)NCC/C=C(\N)C(=O)O; dOrn = NCCC[C@@H](N)C(=O)O; Pra = C#CC[C@H](N)C(=O)O; Dab = NCC[C@H](N)C(=O)O; Abu = CC[C@H](N)C(=O)O; NH(CH2)4NH2 = NCCCCN*

Tests used:
[1] = target: N-type calcium channels (Cav2.2) (Rattus norvegicus (Rat), UniProt Q02294); experiment: biochemical; type: binding
[2] = tested on: Pseudomonas aeruginosa ATCC 27853; experiment: MIC, broth microdilution (CLSI), reference strain; details: CAMHB
[3] = tested on: Escherichia coli ATCC 25922; experiment: MIC, broth microdilution (CLSI), reference strain; details: CAMHB
[4] = tested on: Staphylococcus aureus ATCC 13709; experiment: MIC, broth microdilution (CLSI), reference strain; details: CAMHB
[5] = tested on: Acinetobacter baumannii ATCC 19606; experiment: MIC, broth microdilution (CLSI), reference strain; details: CAMHB
[6] = class symbol, rat cerebral cortex, [125I]ω-conotoxin GVIA 0.001 nM, 30 minutes at room temperature, read-out: IC50 Cav2.2

Row | SMILES | IC50 [1, 6] [nM] | Pa: MIC Pseudomonas aeruginosa ATCC 27853 [2] | Ec: MIC Escherichia coli ATCC 25922 [3] | Sa: MIC Staphylococcus aureus ATCC 13709 [4] | Ab: MIC Acinetobacter baumannii ATCC 19606 [5] | IC50 [1] [nM] | IC50 ([1]; value in brackets, rat cerebral cortex, [125I]ω-conotoxin GVIA 0.001 nM, read-out: IC50 Cav2.2) [nM]
1 | C[C@H](N)C(=O)N[C@H](C(=O)N[C@H](C(=O)NCC(=O)N[C@H](CCCN)C(=O)N1CCC[C@H]1C(=O)N[C@@H](Cc1cnc[nH]1)C(=O)N[C@@H](CCCCN)C(=O)N/C(=C\CCNC(=N)N)C(=O)N[C@@H](CCCCN)C(=O)NCCCCN)[C@@H](O)CN)[C@@H](O)CN [22.16] (H-A[Dab(3S-OH)][Dab(3S-OH)]G[dOrn]PHK[ΔZArg]K-{NH(CH2)4NH2}) | < 30 | − (>32 μg/mL) | + (≤32 μg/mL) | ++ (≤8 μg/mL) | − (>32 μg/mL) |  | 
2 | CC[C@H](C)[C@H](NC(=O)[C@@H](NC(=O)[C@@H](N)CCCCN)[C@@H](O)CN)C(=O)NCC(=O)N[C@H](CCCN)C(=O)N1CCC[C@H]1C(=O)N[C@@H](Cc1cnc[nH]1)C(=O)N[C@@H](CCCCN)C(=O)N/C(=C\CCNC(=N)N)C(=O)N[C@@H](CCCCN)C(=O)NCCCCN [27.1] (H-K[Dab(3S-OH)]IG[dOrn]PHK[ΔZArg]K-{NH(CH2)4NH2}) | < 30 | − (>32 μg/mL) | ++ (≤8 μg/mL) | ++ (≤8 μg/mL) | − (>32 μg/mL) |  | 
3 | N=C(N)NCC/C=C(\NC(=O)[C@H](CCCCN)NC(=O)[C@H](Cc1cnc[nH]1)NC(=O)[C@@H]1CCCN1C(=O)[C@@H](CCCN)NC(=O)CNC(=O)[C@H](CCN)NC(=O)[C@@H](NC(=O)[C@@H](N)CCCCN)[C@@H](O)CN)C(=O)N[C@@H](CCCCN)C(=O)NCCCCN [21.1] (H-K[Dab(3S-OH)][Dab]G[dOrn]PHK[ΔZArg]K-{NH(CH2)4NH2}) | < 30 | ++ (≤8 μg/mL) | ++ (≤8 μg/mL) | ++ (≤8 μg/mL) | ++ (≤8 μg/mL) |  | 
4 | C[C@H](NC(=O)[C@@H](NC(=O)[C@@H](N)CCCCN)[C@@H](O)CN)C(=O)NCC(=O)N[C@H](CCCN)C(=O)N1CCC[C@H]1C(=O)N[C@@H](Cc1ccc(O)cc1)C(=O)N[C@@H](CCCCN)C(=O)N/C(=C\CCNC(=N)N)C(=O)N[C@@H](CCCCN)C(=O)NCCCCN [24.20] (H-K[Dab(3S-OH)]AG[dOrn]PYK[ΔZArg]K-{NH(CH2)4NH2}) | < 30 | − (>32 μg/mL) | ++ (≤8 μg/mL) | ++ (≤8 μg/mL) | − (>32 μg/mL) |  | 
5 | CC(C)[C@H](NC(=O)[C@@H](NC(=O)[C@@H](N)CCCCN)[C@@H](O)CN)C(=O)NCC(=O)N[C@H](CCCN)C(=O)N1CCC[C@H]1C(=O)N[C@@H](Cc1cnc[nH]1)C(=O)N[C@@H](CCCCN)C(=O)N/C(=C\CCNC(=N)N)C(=O)O [212.2] (H-K[Dab(3S-OH)]VG[dOrn]PHK[ΔZArg]-OH) | > 300 | − (>32 μg/mL) | − (>32 μg/mL) | + (≤32 μg/mL) | − (>32 μg/mL) |  | 
6 | CC[C@H](NC(=O)[C@@H](NC(=O)[C@@H](N)CCCCN)[C@@H](O)CN)C(=O)NCC(=O)N[C@H](CCCN)C(=O)N1CCC[C@H]1C(=O)N[C@@H](Cc1cnc[nH]1)C(=O)N[C@@H](CCCCN)C(=O)N/C(=C\CCNC(=N)N)C(=O)O [28.2] (H-K[Dab(3S-OH)][Abu]G[dOrn]PHK[ΔZArg]-OH) | > 300 | − (>32 μg/mL) | − (>32 μg/mL) | + (≤32 μg/mL) | − (>32 μg/mL) |  | 
7 | C[C@H](NC(=O)[C@@H]1CCCN1C(=O)[C@@H](CCCN)NC(=O)CNC(=O)[C@@H](NC(=O)[C@@H](NC(=O)[C@@H](N)CCCCN)[C@@H](O)CN)[C@@H](O)CN)C(=O)N[C@@H](CCCCN)C(=O)N/C(=C\CCNC(=N)N)C(=O)N[C@@H](CCCCN)C(=O)NCCCCN [22.4] (H-K[Dab(3S-OH)][Dab(3S-OH)]G[dOrn]PAK[ΔZArg]K-{NH(CH2)4NH2}) | < 30 | + (≤32 μg/mL) | ++ (≤8 μg/mL) | ++ (≤8 μg/mL) | − (>32 μg/mL) |  | 
8 | C#CC[C@H](NC(=O)[C@@H]1CCCN1C(=O)[C@@H](CCCN)NC(=O)CNC(=O)[C@H](C)NC(=O)[C@@H](NC(=O)[C@@H](N)CCCCN)[C@@H](O)CN)C(=O)N[C@@H](CCCCN)C(=O)N/C(=C\CCNC(=N)N)C(=O)O [24.135] (H-K[Dab(3S-OH)]AG[dOrn]P[Pra]K[ΔZArg]-OH) | > 300 | − (>32 μg/mL) | + (≤32 μg/mL) | + (≤32 μg/mL) | − (>32 μg/mL) |  | 
9 | C[C@H](NC(=O)[C@@H](NC(=O)[C@@H](N)CCCCN)[C@@H](O)CN)C(=O)NCC(=O)N[C@H](CCCN)C(=O)N1CCC[C@H]1C(=O)N[C@@H](Cc1ccccn1)C(=O)N[C@@H](CCCCN)C(=O)N/C(=C\CCNC(=N)N)C(=O)N[C@@H](CCCCN)C(=O)NCCCCN [24.17] (H-K[Dab(3S-OH)]AG[dOrn]P[2Pal]K[ΔZArg]K-{NH(CH2)4NH2}) | < 30 | − (>32 μg/mL) | ++ (≤8 μg/mL) | ++ (≤8 μg/mL) | − (>32 μg/mL) |  | 
10 | C[C@H](NC(=O)[C@@H](NC(=O)[C@@H](N)CCCCN)[C@@H](O)CN)C(=O)NCC(=O)N[C@H](CCCN)C(=O)N1CCC[C@H]1C(=O)N[C@@H](CC(N)=O)C(=O)N[C@@H](CCCCN)C(=O)N/C(=C\CCNC(=N)N)C(=O)O [24.112] (H-K[Dab(3S-OH)]AG[dOrn]PNK[ΔZArg]-OH) |  | − (>32 μg/mL) | − (>32 μg/mL) | + (≤32 μg/mL) | − (>32 μg/mL) | > 300 | 790
11 | CC(C)[C@H](NC(=O)[C@@H](NC(=O)[C@@H](N)CCCCN)[C@@H](O)CN)C(=O)NCC(=O)N[C@H](CCCN)C(=O)N1CCC[C@H]1C(=O)N[C@@H](Cc1cnc[nH]1)C(=O)N[C@@H](CCCCN)C(=O)N/C(=C\CCNC(=N)N)C(=O)N[C@@H](CCCCN)C(=O)NCCCCN [212.1] (H-K[Dab(3S-OH)]VG[dOrn]PHK[ΔZArg]K-{NH(CH2)4NH2}) | < 30 | − (>32 μg/mL) | ++ (≤8 μg/mL) | ++ (≤8 μg/mL) | − (>32 μg/mL) |  | 
12 | N=C(N)NCC/C=C(\NC(=O)[C@H](CCCCN)NC(=O)[C@H](Cc1cnc[nH]1)NC(=O)[C@@H]1CCCN1C(=O)[C@@H](CCCN)NC(=O)CNC(=O)[C@@H](NC(=O)[C@@H](NC(=O)[C@@H](N)CCCCN)[C@@H](O)CN)[C@H](CN)OC(=O)C(F)(F)F)C(=O)N[C@@H](CCCCN)C(=O)NCCCCN [224.1] (H-K[Dab(3S-OH)][X3]G[dOrn]PHK[ΔZArg]K-{NH(CH2)4NH2}) | < 30 | + (≤32 μg/mL) | ++ (≤8 μg/mL) | ++ (≤8 μg/mL) | − (>32 μg/mL) |  | 
13 | C[C@H](NC(=O)[C@@H](NC(=O)[C@@H](N)CCCCN)[C@@H](O)CN)C(=O)NCC(=O)N[C@H](CCCN)C(=O)N1CCC[C@H]1C(=O)N[C@@H](Cc1ccc(C(C)(C)C)cc1)C(=O)N[C@@H](CCCCN)C(=O)N/C(=C\CCNC(=N)N)C(=O)O [24.93] (H-K[Dab(3S-OH)]AG[dOrn]P[Phe(4-tBu)]K[ΔZArg]-OH) | > 300 | − (>32 μg/mL) | ++ (≤8 μg/mL) | ++ (≤8 μg/mL) | − (>32 μg/mL) |  | 
14 | C[C@H](NC(=O)[C@@H](NC(=O)[C@@H](N)CCCCN)[C@@H](O)CN)C(=O)NCC(=O)N[C@H](CCCN)C(=O)N1CCC[C@H]1C(=O)N[C@@H](Cc1cncn1C)C(=O)N[C@@H](CCCCN)C(=O)N/C(=C\CCNC(=N)N)C(=O)N[C@@H](CCCCN)C(=O)NCCCCN [24.14] (H-K[Dab(3S-OH)]AG[dOrn]P[His(π-Me)]K[ΔZArg]K-{NH(CH2)4NH2}) | < 30 | + (≤32 μg/mL) | ++ (≤8 μg/mL) | ++ (≤8 μg/mL) | − (>32 μg/mL) |  | 
15 | N=C(N)NCCC[C@@H](NC(=O)[C@H](CCCCN)NC(=O)[C@H](Cc1cnc[nH]1)NC(=O)[C@@H]1CCCN1C(=O)[C@@H](CCCN)NC(=O)CNC(=O)[C@@H](NC(=O)[C@@H](NC(=O)[C@@H](N)CCCCN)[C@@H](O)CN)[C@@H](O)CN)C(=O)N[C@@H](CCCCN)C(=O)NCCCCN [22.5] (H-K[Dab(3S-OH)][Dab(3S-OH)]G[dOrn]PHK[dR]K-{NH(CH2)4NH2}) | < 30 | + (≤32 μg/mL) | + (≤32 μg/mL) | ++ (≤8 μg/mL) | − (>32 μg/mL) |  | 
16 | C[C@H](NC(=O)[C@@H](NC(=O)[C@@H](N)CCCCN)[C@@H](O)CN)C(=O)NCC(=O)N[C@H](CCCN)C(=O)N1CCC[C@H]1C(=O)N[C@@H](CC(N)=O)C(=O)N[C@@H](CCCCN)C(=O)N/C(=C\CCNC(=N)N)C(=O)N[C@@H](CCCCN)C(=O)NCCCCN [24.22] (H-K[Dab(3S-OH)]AG[dOrn]PNK[ΔZArg]K-{NH(CH2)4NH2}) | < 30 | − (>32 μg/mL) | ++ (≤8 μg/mL) | ++ (≤8 μg/mL) | − (>32 μg/mL) |  | 
